# Assays:
# IDE [1] = assay: IDE mRNA expression in HMO6 human microglial cells (qPCR); format: cell-based
# Procedure: HMO6 human microglial cell line was kindly provided by Dr. SU Kim (Chung-Ang University, Korea). HMO6 cells were grown in Dulbecco's Modified Eagle's Medium (DMEM) (Hyclone, USA) supplemented with 10% fetal bovine serum, 100 U/ml penicillin, and 100 μg/ml streptomycin (Invitrogen, USA). Cultures were maintained under 5% CO2 at 37° C. in tissue culture flasks. Cells were grown to >90% confluency and subjected to no more than 20 cell passages. Medium was changed every 2-3 days. Subconfluent cells were harvested and seeded at a density of 5×10^5 cells or 5×10^6 cells in poly-L-lysine-coated 35-mm or 60-mm culture plates. After 24 h of plating, the medium was replaced with serum-free DMEM, washed once with phosphate buffered saline (PBS), and treated with Rg3 or Aβ42.
# Total RNA extracts from HMO6 cells or perfused brain tissue were prepared using the Trizol method (Invitrogen). cDNA was synthesized from RNA by reverse transcription of 1 μg total RNA using the Improm-II reverse transcription system (Promega, Wis., USA) and oligo dT primers in a total volume of 20 μl. PCR amplification was performed using the primers listed in Table 1 (Bioneer, Korea). qPCR reactions were run on a Rotor-Gene 6000 (Corbett Research, Sydney, Australia) using a SensiMix™ SYBR Hi-ROX Kit (Bioline, UK) in 20 μl reaction mixtures. Each real-time-PCR master mix contained 10 μl 2× enzyme master mix, 7 μl RNase free water, 1 μl of each primer (10 pM each), and 1 μl diluted template. The PCR was performed with an initial pre-incubation step for 15 min at 95° C., followed by 45 cycles of 95° C. for 15 s, annealing at 52° C. for 15 s, and extension at 72° C. for 10 s. […] Relative sample expression levels were calculated using Rotor-Gene 6000 Series Software 1.7 and were expressed relative to β-actin for mice or glyceraldehyde 3-phosphate dehydrogenase for HMO6 cells and corrected for between-run variability. Data for the experimental samples are expressed as a percentage of the internal control gene. […]
# IDE [2] = assay: IDE protein expression in HMO6 cells (western blot, immunocytochemistry); format: cell-based, human; details: 5 μg/ml Rg3, 24 h (FIG. 19)
# Procedure: (§1) FIG. 19 represents an images showing a result of western blot analysis of the expression of NEP (neprilysin) and IDE (insulin-degrading enzyme) in HMO6 cells (A); graphs representing the above result quantitatively (B and C), and fluorescence microscopic images representing immunocytochemical analyses (D and E). The expression of NEP and IDE in HMO6 cells was analyzed by western blot analysis and immunocytochemistry after treating Aβ42 (5 μM) or Rg3 (2.5 or 5 μg/ml) for 24 h to HMO6 cells in serum-free DMEM medium plated on 60 mm cell culture plates or chamber slides. The results are shown as mean±SD. * P<0.05, ** P<0.01, *** P<0.001.
# (§2) HMO6 cells were lysed in 1% RIPA buffer containing protease and phosphatase inhibitors (Roche, Mannheim, Germany) and whole-cell lysates were separated on 10% sodium dodecyl sulfate-polyacrylamide gel electrophoresis. After electrophoresis, the proteins were transferred to polyvinylidene fluoride membranes, and the membranes were blocked with 5% skim milk in Tris-buffered saline solution containing 0.1% Tween-20. The membranes were then immunoblotted with primary antibodies, anti-phospho-p38, anti-p38, anti-phospho-ERK, anti-ERK, and anti-f3-actin (Santa Cruz Biotechnology, USA), followed by incubation with horseradish peroxidase-conjugated anti-rabbit or anti-mouse secondary antibodies (Stressgen, USA). […]
# NEP = NEP protein expression in HMO6 cells (western blot, immunocytochemistry); format: cell-based, human; details: 5 μg/ml Rg3, 24 h (FIG. 19)
# Procedure: as §1, §2
# [3] = Rg3-treated HMO6 cells (FIG. 14)
smiles,measurement,setting,value
CC(C)=CCC[C@](C)(O)[C@H]1CC[C@]2(C)[C@@H]1[C@H](O)C[C@@H]1[C@@]3(C)CC[C@H](O[C@@H]4O[C@H](CO)[C@@H](O)[C@H](O)[C@H]4O[C@@H]4O[C@H](CO)[C@@H](O)[C@H](O)[C@H]4O)C(C)(C)[C@@H]3CC[C@]12C [ginsenoside Rg3],IDE mRNA,"IDE [1]; HMO6 cells, Aβ42 (5 μM) and/or Rg3 (2.5 or 5 μg/ml), 24 h (FIG. 15E)",increased significantly
same,IDE expression versus untreated control group,IDE [1]; [3],about six-fold higher
same,IDE mRNA expression,IDE [1]; [3],dose-dependently increased
same,IDE expression in cells,IDE [2],distinctively expressed
same,NEP expression in cells,NEP,distinctively expressed

# Reference: patent US20160022751A1, “NOVEL COMPOSITION FOR TREATING ALZHEIMER'S DISEASE AND IMPROVING COGNITIVE FUNCTION OF ALZHEIMER'S PATIENTS” (GANGNEUNG-WONJU NATIONAL UNIVERSITY INDUSTRY ACADEMY …, priority 2014, published 2016)
